Source: publication PMC8776995 (Frontiers in Chemistry, 2022)
Values joined by “and” are separate entries in the source; they are usually repeats but may differ in a detail not shown here. Identical values can stand only once.

How the values were obtained:
[1] = tested on: CCND1, CCNA2, CCNB1, CDK2, CDK6 RNA in PC-9 cells; assay: qPCR assay for cell cycle-related gene analysis; type: cell-based, human; conditions: for 2^ΔΔCт CDK6: Repeat 1-3, relative to NC = 1; for RQ / RQ, CCNA / RQ, CCNB / RQ, CCND1 / RQ, CDK6 / RQ (CDK2): endogenous control b-Actin, reference sample NC; for CDK6 relative mRNA expression (fold of NC): qPCR, SYBR Green, normalised to beta-Actin, relative to NC = 1
From the text: To better understand the mechanisms underlying cell cycle arrest induced by e4 and e12 in NSCLC cells, we assessed the expression levels of a few genes involved in cell cycle regulation, including cyclin D1 (CCND1), cyclin A2 (CCNA2), cyclin B1 (CCNB1), cyclin-dependent kinase 2 (CDK2), and cyclin-dependent kinase 6 (CDK6) in PC-9 by qPCR. […] CCNA2 is known to bind and activate CDK2 and thus promotes the transition through G1/S and G2/M. CCNB1 and CCND1 are essential to mitosis and G1/S transition respectively. While G2/M arrest weas not detected, the changes in these gene expression profiles interpret the G1/S arrests in PC-9 cells treated with e4 and e12. PC-9 cells exposed to the compounds for various periods should be examined further.
Total RNA of cells was extracted and cDNA was synthesized. The primers for the target products were designed as in Table 3.

H460 cells = assay: Annexin V/PI flow cytometry for cell apoptosis, H460; type: cell-based, human; conditions: for Percentage of apoptosis, Average: average of three runs; for Q2+Q3 / Lymphocytes/Q2: FITC-A+ , PI-A+ Freq. of Parent / Lymphocytes/Q3: FITC-A+ , PI-A- Freq. of Parent / Percentage of apoptosis: single runs; for Q2+Q3: given as fraction; for Lymphocytes/Q2: FITC-A+ , PI-A+ Freq. of Parent / Lymphocytes/Q3: FITC-A+ , PI-A- Freq. of Parent / Percentage of apoptosis: time as in file name (24h, 48h or not given)
Method: To establish whether the antiproliferative efficacy is associated with apoptosis, PC-9 and H460 cells were treated with compound e4 or e12 of various concentrations (4, 8 and 12 μM) for 48 h, and then assessed with flow cytometry.
Cell-apoptosis analysis was carried out by flow cytometry using the Annexin V/PI apoptosis kit according to the manufacturer’s manual. Briefly, PC-9 or H460 (3 × 10^4–5 × 10^4/well) cells were seeded in 12-well plates for 24 h, and then treated with 0.1% DMSO (as control) or various concentrations of compound e4 or e12 for 48 h, respectively. Cells were harvested, washed with PBS, and then incubated with 100ul of 1X Annexin V binding buffer containing 1 μl PI and 1 μl FITC Annexin V for 15 min at RT in the dark. 200 µl of 1X binding buffer were added to each tube for flow cytometry analysis (BD LSRFortessa™ Flow Cytometer). The percentages of apoptotic cells were analyzed using FlowJo soft.

[2] = PC-9, 16 h, compared with DMSO control

Question: With COCCOc1cc2ncnc(Nc3cccc(-c4cn(-c5ccc(C)cc5)nn4)c3)c2cc1OCCOC [e12, [6,7-Bis-(2-methoxy-ethoxy)-quinazolin-4-yl]-[3-(1-p-tolyl-1H-[1,2,3]triazol-4-yl)-phenyl]-amine] as the molecule, how does the “2^ΔΔCт CDK6” value ([1]; CDK6, 4uM) read?
Answer: 0.5928 and 0.8604 and 0.9896

Question: What about the “2^ΔΔCт CDK6” value ([1]; CDK6, 8uM) of the same molecule?
Answer: 0.8101 and 1.1509 and 0.9153

Question: And the “2^ΔΔCт” value ([1]; CDK6, 8uM, normalized to WT (NC), run 20201020-2)?
Answer: 0.9153

Question: What about the “2^ΔΔCт CDK6” value ([1]; CDK6, 12uM) of the same molecule?
Answer: 0.676 and 1.27 and 0.9852

Question: And the RQ ([1]; CDK6 mRNA, 4uM)?
Answer: 0.9896

Question: What about the RQ ([1]; CDK6 mRNA, 8uM) of the same molecule?
Answer: 0.9153

Question: And the RQ ([1]; CDK6 mRNA, 12uM)?
Answer: 0.9852

Question: What about the “RNA level of CCNA2” value [1, 2] of the same molecule?
Answer: significantly decreased

Question: What about the “RNA level of CCNB1” value [1, 2] of the same molecule?
Answer: significantly decreased

Question: What about the “RQ, CCNA” value ([1]; qPCR SYBR Green, CCNA mRNA, 4uM) of the same molecule?
Answer: 0.6447

Question: And the “RQ, CCNA” value ([1]; qPCR SYBR Green, CCNA mRNA, 8uM)?
Answer: 0.5272

Question: What about the “RQ, CCNA” value ([1]; qPCR SYBR Green, CCNA mRNA, 12uM) of the same molecule?
Answer: 0.5472

Question: And the “RQ, CCNB” value ([1]; qPCR SYBR Green, CCNB mRNA, 4uM)?
Answer: 1.09

Question: And the “RQ, CCNB” value ([1]; qPCR SYBR Green, CCNB mRNA, 8uM)?
Answer: 1.029

Question: What about the “RQ, CCNB” value ([1]; qPCR SYBR Green, CCNB mRNA, 12uM) of the same molecule?
Answer: 0.964

Question: What about the “RQ, CCND1” value ([1]; qPCR SYBR Green, CCND1 mRNA, 4uM) of the same molecule?
Answer: 0.963

Question: And the “RQ, CCND1” value ([1]; qPCR SYBR Green, CCND1 mRNA, 8uM)?
Answer: 0.9528

Question: And the “RQ, CCND1” value ([1]; qPCR SYBR Green, CCND1 mRNA, 12uM)?
Answer: 0.9545

Question: What about the “RQ, CDK6” value ([1]; qPCR SYBR Green, CDK6 mRNA, 4uM) of the same molecule?
Answer: 0.8604

Question: And the “RQ, CDK6” value ([1]; qPCR SYBR Green, CDK6 mRNA, 8uM)?
Answer: 1.1509

Question: And the “RQ, CDK6” value ([1]; qPCR SYBR Green, CDK6 mRNA, 12uM)?
Answer: 1.27

Question: And the “CDK6 relative mRNA expression (fold of NC)” value ([1]; 4uM)?
Answer: 0.9896

Question: What about the “CDK6 relative mRNA expression (fold of NC)” value ([1]; 8uM) of the same molecule?
Answer: 0.9153

Question: What about the “CDK6 relative mRNA expression (fold of NC)” value ([1]; 12uM) of the same molecule?
Answer: 0.9852

Question: And the “RQ, CCNA” value ([1]; target CCNA, 4uM)?
Answer: 0.5435

Question: What about the “RQ, CCNA” value ([1]; target CCNA, 8uM) of the same molecule?
Answer: 0.582

Question: What about the “RQ, CCNA” value ([1]; target CCNA, 12uM) of the same molecule?
Answer: 0.5914

Question: And the “RQ, CCNB” value ([1]; target CCNB, 4uM)?
Answer: 0.9828

Question: And the “RQ, CCNB” value ([1]; target CCNB, 8uM)?
Answer: 0.8452

Question: What about the “RQ, CCNB” value ([1]; target CCNB, 12uM) of the same molecule?
Answer: 0.7825

Question: And the “RQ, CCND1” value ([1]; target CCND1, 4uM)?
Answer: 0.7886

Question: And the “RQ, CCND1” value ([1]; target CCND1, 8uM)?
Answer: 0.7649

Question: And the “RQ, CCND1” value ([1]; target CCND1, 12uM)?
Answer: 0.6173

Question: And the “RQ (CDK2)” value ([1]; target CDK2, 4uM)?
Answer: 0.9262

Question: What about the “RQ (CDK2)” value ([1]; target CDK2, 8uM) of the same molecule?
Answer: 0.848

Question: What about the “RQ (CDK2)” value ([1]; target CDK2, 12uM) of the same molecule?
Answer: 0.7751

Question: And the “RQ, CDK6” value ([1]; target CDK6, 4uM)?
Answer: 0.5928

Question: What about the “RQ, CDK6” value ([1]; target CDK6, 8uM) of the same molecule?
Answer: 0.8101

Question: And the “RQ, CDK6” value ([1]; target CDK6, 12uM)?
Answer: 0.676

Question: What about the “Percentage of apoptosis, Average” value (H460 cells; H460, 4uM) of the same molecule?
Answer: 14.68%

Question: What about the “Q2+Q3” value (H460 cells; H460, 4uM) of the same molecule?
Answer: 0.149

Question: What about the “Lymphocytes/Q2: FITC-A+ , PI-A+ Freq. of Parent” value (H460 cells; H460, 4uM) of the same molecule?
Answer: 8.07% and 10.30% and 7.57%

Question: What about the “Lymphocytes/Q3: FITC-A+ , PI-A- Freq. of Parent” value (shortened to “Lymphocytes/Q3: FITC-A+ ”) (H460 cells; H460, 4uM) of the same molecule?
Answer: 6.83% and 3.75% and 7.52%

Question: What about the Percentage of apoptosis (H460 cells; H460, 4uM) of the same molecule?
Answer: 14.9% and 14.05% and 15.09%

Question: What about the “Percentage of apoptosis, Average” value (H460 cells; H460, 8uM) of the same molecule?
Answer: 16.0567%

Question: And the “Q2+Q3” value (H460 cells; H460, 8uM)?
Answer: 0.1436

Question: And the “Lymphocytes/Q2: FITC-A+ , PI-A+ Freq. of Parent” value (H460 cells; H460, 8uM)?
Answer: 7.09% and 10.30% and 10.90%

Question: What about the “Lymphocytes/Q3: FITC-A+ ” value (H460 cells; H460, 8uM) of the same molecule?
Answer: 7.27% and 6.59% and 6.02%

Question: And the Percentage of apoptosis (H460 cells; H460, 8uM)?
Answer: 14.36% and 16.89% and 16.92%

Question: And the “Percentage of apoptosis, Average” value (H460 cells; H460, 12uM)?
Answer: 28.7833%

Question: What about the “Q2+Q3” value (H460 cells; H460, 12uM) of the same molecule?
Answer: 0.213

Question: And the “Lymphocytes/Q3: FITC-A+ ” value (H460 cells; H460, 12uM)?
Answer: 10.9% and 9.22% and 9.03%

Question: And the Percentage of apoptosis (H460 cells; H460, 12uM)?
Answer: 21.3% and 31.62% and 33.43%

Question: And the “cell apoptosis (flow cytometry)” value (H460 cells; H460, 4, 8 and 12 μM, 48 h)?
Answer: significant cell apoptosis
